Experiments:
[1] = tested on: M14; experiment: Growth inhibition of human M14 cells assessed as growth percentage at 10 uM measured after 48 hrs by sulforhodamine B assay relative to control; format: functional; settings: read-out: Activity
[2] = tested on: Panel leukemia (Carcinoma cell lines); experiment: cells; format: functional; settings: Homo sapiens, time 48 hrs
Description: Growth inhibition of human Panel leukemia (Carcinoma cell lines) incubated for 48 hrs by sulforhodamine B assay

[3] = tested on: UO-31; experiment: cells; format: functional; settings: Homo sapiens, time 48 hrs
Description: Growth inhibition of human UO-31 cells incubated for 48 hrs by sulforhodamine B assay

[4] = tested on: RXF 393; experiment: cells; format: functional; settings: Homo sapiens, time 48 hrs
Description: Growth inhibition of human RXF 393 cells incubated for 48 hrs by sulforhodamine B assay

[5] = tested on: K562; experiment: cells; format: functional; settings: Homo sapiens, time 48 hrs
Description: Growth inhibition of human K562 cells incubated for 48 hrs by sulforhodamine B assay

[6] = tested on: TK-10; experiment: cells; format: functional; settings: Homo sapiens, time 48 hrs
Description: Growth inhibition of human TK-10 cells incubated for 48 hrs by sulforhodamine B assay

[7] = tested on: OVCAR-8; experiment: cells; format: functional; settings: Homo sapiens, time 48 hrs
Description: Growth inhibition of human OVCAR-8 cells incubated for 48 hrs by sulforhodamine B assay

[8] = tested on: NCI-H522; experiment: cells; format: functional; settings: Homo sapiens, time 48 hrs
Description: Growth inhibition of human NCI-H522 cells incubated for 48 hrs by sulforhodamine B assay

[9] = tested on: HCT-116; experiment: cells; format: functional; settings: Homo sapiens, time 48 hrs
Description: Growth inhibition of human HCT-116 cells incubated for 48 hrs by sulforhodamine B assay

[10] = tested on: MDA-MB-468; experiment: cells; format: functional; settings: Homo sapiens, time 48 hrs
Description: Growth inhibition of human MDA-MB-468 cells incubated for 48 hrs by sulforhodamine B assay

[11] = tested on: SF-295; experiment: cells; format: functional; settings: Homo sapiens, time 48 hrs
Description: Growth inhibition of human SF-295 cells incubated for 48 hrs by sulforhodamine B assay

[12] = tested on: U-251; experiment: cells; format: functional; settings: Homo sapiens, time 48 hrs
Description: Growth inhibition of human U-251 cells incubated for 48 hrs by sulforhodamine B assay

[13] = tested on: KM12; experiment: cells; format: functional; settings: Homo sapiens, time 48 hrs
Description: Growth inhibition of human KM12 cells incubated for 48 hrs by sulforhodamine B assay

[14] = tested on: Panel melanoma (Carcinoma cell lines); experiment: cells; format: functional; settings: Homo sapiens, time 48 hrs
Description: Growth inhibition of human Panel melanoma (Carcinoma cell lines) incubated for 48 hrs by sulforhodamine B assay

[15] = tested on: Panel renal (Carcinoma cell lines); experiment: cells; format: functional; settings: Homo sapiens, time 48 hrs
Description: Growth inhibition of human Panel renal (Carcinoma cell lines) incubated for 48 hrs by sulforhodamine B assay

[16] = tested on: SK-MEL-28; experiment: cells; format: functional; settings: Homo sapiens, time 48 hrs
Description: Growth inhibition of human SK-MEL-28 cells incubated for 48 hrs by sulforhodamine B assay

[17] = Cytotoxicity against human HFF-1 cells assessed as cell growth inhibition at 1 uM by MTT assay relative to control; format: cell-based; settings: read-out: GI
[18] = tested on: A549; experiment: cells; format: functional; settings: Homo sapiens, time 48 hrs
Description: Growth inhibition of human A549/ATCC cells incubated for 48 hrs by sulforhodamine B assay

[19] = tested on: OVCAR-4; experiment: cells; format: functional; settings: Homo sapiens, time 48 hrs
Description: Growth inhibition of human OVCAR-4 cells incubated for 48 hrs by sulforhodamine B assay

[20] = tested on: NCI-H226; experiment: cells; format: functional; settings: Homo sapiens, time 48 hrs
Description: Growth inhibition of human NCI-H226 cells incubated for 48 hrs by sulforhodamine B assay

[21] = tested on: NCI-H23; experiment: cells; format: functional; settings: Homo sapiens, time 48 hrs
Description: Growth inhibition of human NCI-H23 cells incubated for 48 hrs by sulforhodamine B assay

[22] = tested on: Panel NCI-60 (60 carcinoma cell lines); experiment: cells; format: functional; settings: Homo sapiens, time 48 hrs
Description: Growth inhibition of human Panel NCI-60 (60 carcinoma cell lines) incubated for 48 hrs by sulforhodamine B assay

[23] = Cytotoxicity against human HFF-1 cells assessed as cell growth inhibition at 0.1 uM by MTT assay relative to control; format: cell-based; settings: read-out: GI
[24] = Cytotoxicity against human HFF-1 cells assessed as cell growth inhibition by MTT assay; format: cell-based
[25] = tested on: Hs-578T; experiment: cells; format: functional; settings: Homo sapiens, time 48 hrs
Description: Growth inhibition of human Hs-578T cells incubated for 48 hrs by sulforhodamine B assay

[26] = tested on: CCRF-CEM; experiment: cells; format: functional; settings: Homo sapiens, time 48 hrs
Description: Growth inhibition of human CCRF-CEM cells incubated for 48 hrs by sulforhodamine B assay

[27] = tested on: HOP-92; experiment: cells; format: functional; settings: Homo sapiens, time 48 hrs
Description: Growth inhibition of human HOP-92 cells incubated for 48 hrs by sulforhodamine B assay

[28] = tested on: Panel prostate (Carcinoma cell lines); experiment: cells; format: functional; settings: Homo sapiens, time 48 hrs
Description: Growth inhibition of human Panel prostate (Carcinoma cell lines) incubated for 48 hrs by sulforhodamine B assay

[29] = tested on: A498; experiment: cells; format: functional; settings: Homo sapiens, time 48 hrs
Description: Growth inhibition of human A498 cells incubated for 48 hrs by sulforhodamine B assay

[30] = tested on: LOX IMVI; experiment: Growth inhibition of human LOX IMVI cells assessed as growth percentage at 10 uM measured after 48 hrs by sulforhodamine B assay relative to control; format: functional; settings: read-out: Activity
[31] = tested on: HT-29; experiment: cells; format: functional; settings: Homo sapiens, time 48 hrs
Description: Growth inhibition of human HT-29 cells incubated for 48 hrs by sulforhodamine B assay

[32] = tested on: MDA-MB-231; experiment: cells; format: functional; settings: Homo sapiens, time 48 hrs
Description: Growth inhibition of human MDA-MB-231/ATCC cells incubated for 48 hrs by sulforhodamine B assay

[33] = tested on: UACC-257; experiment: cells; format: functional; settings: Homo sapiens, time 48 hrs
Description: Growth inhibition of human UACC-257 cells incubated for 48 hrs by sulforhodamine B assay

[34] = cells; format: functional; settings: Homo sapiens, Non-small cell lung cancer cell line; time 48 hrs
Description: Growth inhibition of human Non-small cell lung cancer cell line incubated for 48 hrs by sulforhodamine B assay

[35] = tested on: MCF7; experiment: cells; format: functional; settings: Homo sapiens, time 48 hrs
Description: Growth inhibition of human MCF7 cells incubated for 48 hrs by sulforhodamine B assay

[36] = tested on: LOX IMVI; experiment: cells; format: functional; settings: Homo sapiens, time 48 hrs
Description: Growth inhibition of human LOX IMVI cells incubated for 48 hrs by sulforhodamine B assay

[37] = tested on: Panel CNS (Carcinoma cell lines); experiment: cells; format: functional; settings: Homo sapiens, time 48 hrs
Description: Growth inhibition of human Panel CNS (Carcinoma cell lines) incubated for 48 hrs by sulforhodamine B assay

[38] = tested on: OVCAR-3; experiment: cells; format: functional; settings: Homo sapiens, time 48 hrs
Description: Growth inhibition of human OVCAR-3 cells incubated for 48 hrs by sulforhodamine B assay

[39] = tested on: NCI-H322M; experiment: cells; format: functional; settings: Homo sapiens, time 48 hrs
Description: Growth inhibition of human NCI-H322M cells incubated for 48 hrs by sulforhodamine B assay

[40] = Cytotoxicity against human HFF-1 cells assessed as cell growth inhibition at 10 uM by MTT assay relative to control; format: cell-based; settings: read-out: GI
[41] = tested on: Panel breast (Carcinoma cell lines); experiment: cells; format: functional; settings: Homo sapiens, time 48 hrs
Description: Growth inhibition of human Panel breast (Carcinoma cell lines) incubated for 48 hrs by sulforhodamine B assay

[42] = tested on: IGROV-1; experiment: cells; format: functional; settings: Homo sapiens, time 48 hrs
Description: Growth inhibition of human IGROV-1 cells incubated for 48 hrs by sulforhodamine B assay

[43] = tested on: PC-3; experiment: cells; format: functional; settings: Homo sapiens, time 48 hrs
Description: Growth inhibition of human PC-3 cells incubated for 48 hrs by sulforhodamine B assay

[44] = tested on: HOP-62; experiment: cells; format: functional; settings: Homo sapiens, time 48 hrs
Description: Growth inhibition of human HOP-62 cells incubated for 48 hrs by sulforhodamine B assay

[45] = tested on: NCI-H460; experiment: cells; format: functional; settings: Homo sapiens, time 48 hrs
Description: Growth inhibition of human NCI-H460 cells incubated for 48 hrs by sulforhodamine B assay

[46] = tested on: HCT-15; experiment: cells; format: functional; settings: Homo sapiens, time 48 hrs
Description: Growth inhibition of human HCT-15 cells incubated for 48 hrs by sulforhodamine B assay

[47] = tested on: Panel ovarian (Carcinoma cell lines); experiment: cells; format: functional; settings: Homo sapiens, time 48 hrs
Description: Growth inhibition of human Panel ovarian (Carcinoma cell lines) incubated for 48 hrs by sulforhodamine B assay

[48] = tested on: Panel colon (Carcinoma cell lines); experiment: cells; format: functional; settings: Homo sapiens, time 48 hrs
Description: Growth inhibition of human Panel colon (Carcinoma cell lines) incubated for 48 hrs by sulforhodamine B assay

[49] = tested on: UACC-62; experiment: cells; format: functional; settings: Homo sapiens, time 48 hrs
Description: Growth inhibition of human UACC-62 cells incubated for 48 hrs by sulforhodamine B assay

[50] = tested on: SNB-75; experiment: cells; format: functional; settings: Homo sapiens, time 48 hrs
Description: Growth inhibition of human SNB-75 cells incubated for 48 hrs by sulforhodamine B assay

[51] = tested on: SR; experiment: cells; format: functional; settings: Homo sapiens, time 48 hrs
Description: Growth inhibition of human SR cells incubated for 48 hrs by sulforhodamine B assay

[52] = read-out: LC50 (the source's name)

In the case of CC(C)c1ccc(Nc2ccc3c(OCCCN4CCOCC4)cccc3n2)cc1, the growth at 10 µM [1] is reported as 59.8%.

For COc1cc2ncnc(Nc3ccc(F)c(Cl)c3)c2cc1OCCCN1CCOCC1 [GEFITINIB], the GI50 [2] was 3.54 µM.

For CN1CCN(CCCOc2cccc3nc(Nc4cc(Cl)cc(Cl)c4)ccc23)CC1, the GI50 [3] was 1.49 µM, the GI50 [4] was 1.67 µM and the GI50 [5] was 1.66 µM. The GI50 [6] was 1.74 µM, the GI50 [7] was 1.94 µM and the GI50 [8] was 1.64 µM. It also gave a GI50 [9] of 1.94 µM, a GI50 [10] of 1.69 µM and a GI50 [11] of 1.72 µM. The GI50 [12] was 1.72 µM, the GI50 [13] was 1.72 µM and the GI50 [14] was 1.8 µM. The LC50 [14] was 6.62 µM, the TGI [14] was 3.43 µM and the GI50 [15] was 2.07 µM. The LC50 (lethal concentration 50%) [15] was 17.1 µM, the TGI [15] was 5.56 µM and the GI50 [16] was 1.67 µM. It also gave an inhibition at 1 µM [17] of 12%, a GI50 [18] of 1.98 µM and a GI50 [19] of 2.55 µM. The GI50 [20] was 1.95 µM, the GI50 [21] was 1.72 µM and the GI50 [22] was 1.77 µM. For the same compound, the TGI [22] was 3.72 µM, the CC50 [22, 52] was 8.32 µM and the inhibition at 0.1 µM [23] was 12.5%. For the same compound, the GI50 [24] was greater than 10 µM, the GI50 [25] was 2.5 µM and the GI50 [26] was 1.78 µM. It also gave a GI50 [27] of 1.59 µM, a GI50 [28] of 1.73 µM and an LC50 (concentration killing 50% of cells) [28] of 5.96 µM. For the same compound, the TGI [28] was 3.21 µM, the GI50 [29] was 1.78 µM and the GI50 [2] was 1.8 µM. It also gave an LC50 (50% lethal concentration) [2] of 100 µM, a TGI [2] of 3.96 µM and a growth at 10 µM [30] of -5.27%. It also gave a GI50 [31] of 1.41 µM, a GI50 [32] of 1.57 µM and a GI50 [33] of 1.97 µM. It also gave a GI50 [34] of 1.71 µM, an LC50 (50% lethal concentration) [34] of 8.15 µM and a TGI [34] of 3.51 µM. For the same compound, the GI50 [35] was 1.38 µM, the GI50 [36] was 1.58 µM and the GI50 [37] was 1.72 µM. It also gave a TGI [37] of 3.26 µM, a CC50 [37, 52] of 6.2 µM and a GI50 [38] of 1.68 µM. It also gave a GI50 [39] of 1.56 µM, an inhibition at 10 µM [40] of 13.3% and a GI50 [41] of 2.06 µM. For the same compound, the TGI [41] was 5.67 µM, the CC50 [41, 52] was 21.8 µM and the GI50 [42] was 1.68 µM. The GI50 [43] was 1.76 µM, the GI50 [44] was 1.37 µM and the GI50 [45] was 1.84 µM. For the same compound, the GI50 [46] was 1.42 µM, the GI50 [47] was 1.87 µM and the LC50 [47] was 9.18 µM. It also gave a TGI [47] of 4.1 µM, a GI50 [48] of 1.68 µM and a TGI [48] of 3.19 µM. It also gave a CC50 [48, 52] of 6.1 µM and a GI50 [49] of 1.95 µM.

In the case of Fc1cc(Nc2ccc3c(OCCCN4CCOCC4)cccc3n2)ccc1Cl, the GI50 [3] is reported as 1.65 µM, the GI50 [4] is reported as 2.16 µM and the GI50 [5] is reported as 1.91 µM. For the same compound, the GI50 [6] was 2.01 µM, the GI50 [7] was 4.03 µM and the GI50 [8] was 1.72 µM. For the same compound, the GI50 [9] was 2.76 µM, the GI50 [10] was 2.08 µM and the GI50 [11] was 1.97 µM. It also gave a GI50 [12] of 1.85 µM, a GI50 [13] of 2.3 µM and a GI50 [14] of 2.01 µM. The GI50 [15] was 2.42 µM, the GI50 [16] was 1.82 µM and the GI50 [18] was 2.96 µM. The GI50 [19] was 3.75 µM, the GI50 [20] was 2.76 µM and the GI50 [21] was 2.21 µM. For the same compound, the GI50 [22] was 2.24 µM, the GI50 [25] was 2.19 µM and the GI50 [26] was 2.48 µM. For the same compound, the GI50 [27] was 2.4 µM, the GI50 [28] was 2.85 µM and the GI50 [29] was 2.42 µM. It also gave a GI50 [2] of 2.18 µM, a GI50 [31] of 1.53 µM and a GI50 [50] of 1.86 µM. For the same compound, the GI50 [32] was 1.53 µM, the GI50 [33] was 2.18 µM and the GI50 [34] was 2.41 µM. The GI50 [35] was 1.68 µM, the GI50 [36] was 1.71 µM and the GI50 [37] was 2.16 µM. It also gave a GI50 [38] of 3.08 µM, a GI50 [39] of 2.53 µM and a GI50 [41] of 2.48 µM. For the same compound, the GI50 [42] was 3.19 µM, the GI50 [43] was 2.08 µM and the GI50 [44] was 1.71 µM. The GI50 [45] was 3.07 µM, the GI50 [46] was 1.4 µM and the GI50 [47] was 3.07 µM. For the same compound, the GI50 [51] was 1.69 µM, the GI50 [48] was 1.97 µM and the GI50 [49] was 2.32 µM.

— ChEMBL document CHEMBL4715724, “Novel 5-substituted-2-anilinoquinolines with 3-(morpholino or 4-methylpiperazin-1-yl)propoxy moiety as broad spectrum antiproliferative agents: Synthesis, cell based assays and kinase screening” (Bioorg Med Chem Lett, 2016)
